Results from US20060100226A1, “2-Thiopyrimidinones as therapeutic agents” (priority 2004, published 2006).

Biological target: T1, murine MEKK2 (mMEKK2) (Mus musculus, UniProt Q61083)
T1 sequence (Q61083 1-619): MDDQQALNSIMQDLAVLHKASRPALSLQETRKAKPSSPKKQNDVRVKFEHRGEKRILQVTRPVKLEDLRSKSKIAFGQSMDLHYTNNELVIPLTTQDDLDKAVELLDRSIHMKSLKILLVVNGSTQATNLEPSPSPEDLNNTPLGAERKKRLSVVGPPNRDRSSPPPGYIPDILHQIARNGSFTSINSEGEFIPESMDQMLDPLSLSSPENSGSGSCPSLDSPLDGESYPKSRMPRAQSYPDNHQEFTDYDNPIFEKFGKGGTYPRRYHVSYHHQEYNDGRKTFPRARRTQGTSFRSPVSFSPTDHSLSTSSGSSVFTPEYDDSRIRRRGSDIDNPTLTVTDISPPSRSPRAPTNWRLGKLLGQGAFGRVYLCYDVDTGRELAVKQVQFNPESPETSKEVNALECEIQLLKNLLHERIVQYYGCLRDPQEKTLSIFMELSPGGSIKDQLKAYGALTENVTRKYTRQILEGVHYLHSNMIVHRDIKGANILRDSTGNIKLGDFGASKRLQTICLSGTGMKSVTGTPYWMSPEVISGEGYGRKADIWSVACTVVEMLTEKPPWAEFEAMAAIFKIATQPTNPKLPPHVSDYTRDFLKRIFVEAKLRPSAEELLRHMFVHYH
Test: TR-FRET kinase assay (mMEKK2/MBP)
Format: biochemical
Details: substrate biotin MBP, 60 minutes at room temperature
Description: In one approach, MEKK2 inhibitory activity of compounds of the invention can be assessed using the time-resolved Fluorescence Resonance Energy Transfer (TR-FRET) assay detailed in Example 5. In this assay, the excitation energy of one fluorescent molecule (the donor) is transferred by a resonance mechanism to a nearby second fluorescent molecule (the acceptor), which then releases its fluorescent energy through fluorescent emission. This fluorescent energy is measured using a time-resolved fluorescence measurement protocol (LANCE high count 615/665); excitation occurred with 1,000 flashes at 325 nm, measurement was delayed by 100 μs, and data were acquired for 50 μs at 615 and 665 nm.
A TR-FRET kinase assay was used to screen potential inhibitors of MEKK2. The assay was performed as follows: Compounds to be tested were weighed and solubilized in DMSO (Sigma) to a stock concentration of 10 mM. Serial dilutions starting from 1 mM were prepared with additional DMSO. These dilutions were further diluted to 250 μM in kinase reaction buffer [20 mM Hepes pH 7.5, 5 mM MgCl2, 1 mM DTT (Dithiothreitol-Sigma), 1 mM NaVO4 (sodium vanadate-Sigma). A 25 μl aliquot of this solution was transferred to a black 96-well nonbinding surface microplate (Fisher). A stock aliquot containing […] of murine MEKK2 (mMEKK2) was diluted in the kinase reaction buffer and incubated with the compounds on the microplate for 10 minutes. A 25 μl aliquot of a 138 ng solution of biotin MBP (myelin basic protein—Upstate Biotechnology) was added to the reaction followed by 25 ul of a 25 ng solution of anti-phospho MBP antibody (Upstate Biotechnology) diluted in kinase reaction buffer. Finally an aliquot (50 μl) of a 5 uM solution of ATP (adenosine triphosphate) was added and the reaction was allowed to proceed for 60 minutes at room temperature. The reaction was stopped by the addition of 50 μL of a 12.5 ng solution of europium labeled anti-mouse IgG (Perkin Elmer) and 45 ng of Cy5 labeled streptavidin (Jackson Immunoresearch) in termination buffer (20 mM Hepes pH 7.5, 100 mM EDTA; Sigma). The assay was allowed to equilibrate for 45 minutes before placing the plate on the Victor™ plate reader. The plate was read using the 615/665 LANCE protocol.

Row | SMILES | IC50 [µM]
1 | COc1cccc(-c2nc(SCc3cccc(NCc4ccc(-c5cccs5)s4)c3)[nH]c(=O)c2C#N)c1 [Example 1aa] | < 1
2 | COc1cccc(-c2nc(SCc3cccc(NCc4cccc(Oc5ccccc5)c4)c3)[nH]c(=O)c2C#N)c1 [Example 1bb] | < 1
3 | COc1cccc(-c2nc(SCc3cccc(NCc4cccc(Oc5cccc(C(F)(F)F)c5)c4)c3)[nH]c(=O)c2C#N)c1 [Example 1dd] | < 1
4 | COc1cc(CNc2cccc(CSc3nc(-c4cccc(OC)c4)c(C#N)c(=O)[nH]3)c2)cc(OC)c1 [Example 1e] | < 20
5 | COc1cccc(-c2nc(SCc3cccc(NCc4coc5cc(C)cc(C)c5c4=O)c3)[nH]c(=O)c2C#N)c1 [Example 1f] | < 5
6 | COc1cccc(-c2nc(SCc3cccc(NCc4nc5ccccc5n4C)c3)[nH]c(=O)c2C#N)c1 [Example 1g] | < 40
7 | COc1cccc(-c2nc(SCc3cccc(NCc4ccccc4N4CCOCC4)c3)[nH]c(=O)c2C#N)c1 [Example 1h] | < 5
8 | COc1cccc(-c2nc(SCc3cccc(NCc4ccc(N5CCCCC5)cc4)c3)[nH]c(=O)c2C#N)c1 [Example 1i] | < 10
9 | COc1cccc(-c2nc(SCc3cccc(NC[C@H]4CCCN4C(=O)OC(C)(C)C)c3)[nH]c(=O)c2C#N)c1 [Example 1j] | < 20
10 | COc1cccc(-c2nc(SCc3cccc(NCc4cccn4CCC#N)c3)[nH]c(=O)c2C#N)c1 [Example 1l] | < 20
11 | COc1cccc(-c2nc(SCc3cccc(NCc4ccc(Oc5cnccn5)cc4)c3)[nH]c(=O)c2C#N)c1 [Example 1m] | < 20
12 | COc1cccc(-c2nc(SCc3cccc(NCc4ccc(OC)nc4)c3)[nH]c(=O)c2C#N)c1 [Example 1n] | < 40
13 | COc1cccc(-c2nc(SCc3cccc(NCC4CCOCC4)c3)[nH]c(=O)c2C#N)c1 [Example 1o] | > 40
14 | COc1cccc(-c2nc(SCc3cccc(NCc4ccc(-c5cc(C(F)(F)F)n(C)n5)s4)c3)[nH]c(=O)c2C#N)c1 [Example 1q] | < 1
15 | COc1cccc(-c2nc(SCc3cccc(NCc4ccc(-n5ccnc5)cc4)c3)[nH]c(=O)c2C#N)c1 [Example 1r] | < 20
16 | COc1cccc(-c2nc(SCc3cccc(NCc4c(C(F)(F)F)nn(C)c4Cl)c3)[nH]c(=O)c2C#N)c1 [Example 1s] | < 10
17 | COc1cccc(-c2nc(SCc3cccc(NCc4ccc(N(C)C)c(C#N)c4F)c3)[nH]c(=O)c2C#N)c1 [Example 1t] | < 5
18 | COc1cccc(-c2nc(SCc3cccc(NCc4ccc(C#N)cc4)c3)[nH]c(=O)c2C#N)c1 [Example 1u] | < 10

Row | SMILES | IC50 [µM]
19 | COc1cccc(-c2nc(SCc3cccc(NCc4cc(C)c(C)o4)c3)[nH]c(=O)c2C#N)c1 [Example 1w] | < 5
20 | COc1cccc(-c2nc(SCc3cccc(NCc4c[nH]c5ccc(Cl)cc45)c3)[nH]c(=O)c2C#N)c1 [Example 1x] | < 1
21 | COc1cccc(-c2nc(SCc3cccc(NCc4ccc5nsnc5c4)c3)[nH]c(=O)c2C#N)c1 [Example 1y] | < 10
22 | COc1cccc(-c2nc(SCc3cccc(NCc4cnc(N(C)C)nc4)c3)[nH]c(=O)c2C#N)c1 [Example 1z] | < 40
23 | COc1cccc(-c2nc(SCc3ccc(NC(=O)c4sccc4Cl)cc3)[nH]c(=O)c2C#N)c1 [Example 2aaa] | < 5
24 | CCCc1c(C(=O)Nc2ccc(CSc3nc(-c4cccc(OC)c4)c(C#N)c(=O)[nH]3)cc2)cnn1-c1ccc(Cl)cc1 [Example 2bbb] | < 1
25 | COc1cccc(-c2nc(SCc3ccc(NC(=O)c4cccc(OC(F)(F)F)c4)cc3)[nH]c(=O)c2C#N)c1 [Example 2ddd] | < 5
26 | COc1cccc(-c2nc(SCc3ccc(NC(=O)c4cc(C(F)(F)F)cc(Cl)c4F)cc3)[nH]c(=O)c2C#N)c1 [Example 2eee] | < 5
27 | COc1cccc(-c2nc(SCc3ccc(NC(=O)c4cnn(-c5ccccc5)c4C(F)(F)F)cc3)[nH]c(=O)c2C#N)c1 [Example 2fff] | < 5
28 | COc1cccc(-c2nc(SCc3ccc(NC(=O)c4ccc(C(F)(F)F)cc4C(F)(F)F)cc3)[nH]c(=O)c2C#N)c1 [Example 2ggg] | < 5
29 | COc1cccc(-c2nc(SCc3ccc(NC(=O)c4snnc4C)cc3)[nH]c(=O)c2C#N)c1 [Example 2hhh] | < 40
30 | COc1cccc(-c2nc(SCc3ccc(NC(=O)C4=Cc5cc(Cl)ccc5OC4)cc3)[nH]c(=O)c2C#N)c1 [Example 2iii] | < 5
31 | COc1cccc(-c2nc(SCc3ccc(NC(=O)C4CCN(C(C)=O)CC4)cc3)[nH]c(=O)c2C#N)c1 [Example 2jjj] | < 20
32 | COc1cccc(-c2nc(SCc3ccc(NC(=O)c4cc(C(F)(F)F)cc(C(F)(F)F)c4)cc3)[nH]c(=O)c2C#N)c1 [Example 2kkk] | < 5
33 | COc1cccc(-c2nc(SCc3ccc(NC(=O)c4ccc(-c5ccccn5)s4)cc3)[nH]c(=O)c2C#N)c1 [Example 2lll] | < 5
34 | COc1cccc(-c2nc(SCc3ccccc3NC(=O)Cc3ccccc3)[nH]c(=O)c2C#N)c1 [Example 2mmm] | < 40
35 | COc1cccc(-c2nc(SCc3ccccc3NC(=O)c3ccccc3)[nH]c(=O)c2C#N)c1 [Example 2nnn] | < 40
36 | COc1cccc(-c2nc(SCc3ccccc3NC(=O)c3cccc(C(F)(F)F)c3)[nH]c(=O)c2C#N)c1 [Example 2ooo] | > 40

More lines, now with the values ahead:

Row | IC50 [µM] | SMILES
37 | < 5 | COc1cccc(-c2nc(SCc3cccc(NC(=O)c4cccc(Cl)c4)c3)[nH]c(=O)c2C#N)c1 [Example 2a, 3-Chloro-N-{3-[5-cyano-4-(3-methoxy-phenyl)-6-oxo-1,6-dihydro-pyrimidin-2-ylsulfanylmethyl]-phenyl}-benzamide]
38 | < 5 | COc1cccc(-c2nc(SCc3cccc(NC(=O)c4ccc(C)cc4)c3)[nH]c(=O)c2C#N)c1 [Example 2b]
39 | < 5 | COc1cccc(-c2nc(SCc3cccc(NC(=O)c4ccccc4)c3)[nH]c(=O)c2C#N)c1 [Example 2c]
40 | < 5 | COc1cccc(-c2nc(SCc3cccc(NC(=O)c4ccc5ccccc5c4)c3)[nH]c(=O)c2C#N)c1 [Example 2d]
41 | < 5 | COc1cccc(-c2nc(SCc3cccc(NC(=O)CCc4ccccc4)c3)[nH]c(=O)c2C#N)c1 [Example 2e]
42 | < 10 | COc1cccc(CC(=O)Nc2cccc(CSc3nc(-c4cccc(OC)c4)c(C#N)c(=O)[nH]3)c2)c1 [Example 2f]
43 | < 5 | COc1cccc(-c2nc(SCc3cccc(NC(=O)c4cccc(C(F)(F)F)c4)c3)[nH]c(=O)c2C#N)c1 [Example 2g]
44 | < 5 | COc1cccc(-c2nc(SCc3cccc(NC(=O)COc4ccc(Cl)cc4)c3)[nH]c(=O)c2C#N)c1 [Example 2j]
45 | < 10 | COc1cccc(-c2nc(SCc3cccc(NC(=O)Cc4ccccc4)c3)[nH]c(=O)c2C#N)c1 [Example 2k]
46 | < 5 | COc1cccc(-c2nc(SCc3cccc(NC(=O)Cc4ccc(Cl)cc4)c3)[nH]c(=O)c2C#N)c1 [Example 2l]
47 | < 5 | COc1cccc(-c2nc(SCc3cccc(NC(=O)c4cc5ccccc5s4)c3)[nH]c(=O)c2C#N)c1 [Example 2m]
48 | < 5 | COc1cccc(-c2nc(SCc3cccc(NC(=O)c4ccc5c(c4)OCO5)c3)[nH]c(=O)c2C#N)c1 [Example 2o]
49 | < 5 | COc1cccc(-c2nc(SCc3cccc(NC(=O)c4cc(Cl)cc(Cl)c4)c3)[nH]c(=O)c2C#N)c1 [Example 2p]
50 | < 20 | COc1cccc(-c2nc(SCc3ccc(NC(=O)c4ccccc4)cc3)[nH]c(=O)c2C#N)c1 [Example 2pp]
51 | < 5 | COc1cccc(-c2nc(SCc3cccc(NC(=O)c4cc(C(C)(C)C)nn4C)c3)[nH]c(=O)c2C#N)c1 [Example 2q]
52 | < 5 | COc1cccc(-c2nc(SCc3ccc(NC(=O)c4ccc(OC(F)(F)F)cc4)cc3)[nH]c(=O)c2C#N)c1 [Example 2qq]
53 | < 20 | COc1cccc(-c2nc(SCc3cccc(NC(=O)c4cc(C)on4)c3)[nH]c(=O)c2C#N)c1 [Example 2r]
